From ChEMBL document CHEMBL3991601, “The target landscape of clinical kinase drugs” (Science, 2017) come the findings set out here.

Each structure is given as a SMILES string. Calls of active or inactive are those of the source.

For assay [1], the target named is T1, Peroxisomal acyl-coenzyme A oxidase 3 (Homo sapiens, UniProt O15254).
T1 sequence (O15254 whole entry): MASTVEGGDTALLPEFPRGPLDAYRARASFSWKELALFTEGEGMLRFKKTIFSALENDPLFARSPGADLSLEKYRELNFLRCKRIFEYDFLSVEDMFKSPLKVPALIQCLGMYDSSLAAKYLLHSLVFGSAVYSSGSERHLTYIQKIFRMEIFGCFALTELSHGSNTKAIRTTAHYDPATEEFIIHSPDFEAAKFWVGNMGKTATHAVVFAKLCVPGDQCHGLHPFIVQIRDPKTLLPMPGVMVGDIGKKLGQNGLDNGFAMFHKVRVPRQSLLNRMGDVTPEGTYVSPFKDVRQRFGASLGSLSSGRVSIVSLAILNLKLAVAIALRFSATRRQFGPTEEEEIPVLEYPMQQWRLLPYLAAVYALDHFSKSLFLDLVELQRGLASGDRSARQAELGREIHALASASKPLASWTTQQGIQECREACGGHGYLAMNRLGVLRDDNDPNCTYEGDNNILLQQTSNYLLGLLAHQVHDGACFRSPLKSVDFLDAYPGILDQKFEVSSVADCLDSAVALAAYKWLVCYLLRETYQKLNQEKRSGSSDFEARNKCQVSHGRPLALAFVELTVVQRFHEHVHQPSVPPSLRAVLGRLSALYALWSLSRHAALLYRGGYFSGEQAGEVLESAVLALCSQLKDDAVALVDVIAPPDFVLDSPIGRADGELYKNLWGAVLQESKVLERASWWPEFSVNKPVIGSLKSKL

The target in the next assay is Actin-related protein 2 (Homo sapiens, UniProt P61160).
In assay [2] the target is BMP-2-inducible protein kinase (Homo sapiens, UniProt Q9NSY1).
Assay [3] has as its target T2, Calcium/calmodulin-dependent protein kinase type IV (Homo sapiens, UniProt Q16566).
T2 sequence (Q16566 whole entry): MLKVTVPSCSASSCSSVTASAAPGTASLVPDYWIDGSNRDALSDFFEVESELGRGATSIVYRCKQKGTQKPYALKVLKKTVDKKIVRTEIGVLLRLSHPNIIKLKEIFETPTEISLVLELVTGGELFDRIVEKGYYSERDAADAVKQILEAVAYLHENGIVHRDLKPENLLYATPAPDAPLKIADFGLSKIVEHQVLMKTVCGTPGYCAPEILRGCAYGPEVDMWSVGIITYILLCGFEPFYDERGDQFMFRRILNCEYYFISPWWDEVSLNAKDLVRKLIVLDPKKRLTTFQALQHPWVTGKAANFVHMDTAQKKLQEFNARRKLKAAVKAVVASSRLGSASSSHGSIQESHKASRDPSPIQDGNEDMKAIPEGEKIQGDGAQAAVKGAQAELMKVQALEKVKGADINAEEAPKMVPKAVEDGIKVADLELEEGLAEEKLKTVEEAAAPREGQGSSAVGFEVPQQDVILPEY

The target of assay [4] is Cyclin-dependent kinase 6 (Homo sapiens, UniProt Q00534).
The next assay addresses Myosin-14 (Homo sapiens, UniProt Q7Z406).
Assay [5] deals with Protein kinase C alpha type (Homo sapiens, UniProt P17252).
Assay [6] addresses Ras-related protein Rab-6A (Homo sapiens, UniProt P20340).
For assay [7], the target named is GTP-binding nuclear protein Ran (Homo sapiens, UniProt P62826).
Assay [8] has as its target Receptor-interacting serine/threonine-protein kinase 2 (Homo sapiens, UniProt O43353).
The target in assay [9] is Calcium/calmodulin-dependent protein kinase type II subunit delta (Homo sapiens, UniProt Q13557).
Assay [10] concerns the target Casein kinase I isoform gamma-1 (Homo sapiens, UniProt Q9HCP0).
Further: in the data inactive means no Kd found up to 30 µM.

Chain of Myosin-14 (Q7Z406 whole entry): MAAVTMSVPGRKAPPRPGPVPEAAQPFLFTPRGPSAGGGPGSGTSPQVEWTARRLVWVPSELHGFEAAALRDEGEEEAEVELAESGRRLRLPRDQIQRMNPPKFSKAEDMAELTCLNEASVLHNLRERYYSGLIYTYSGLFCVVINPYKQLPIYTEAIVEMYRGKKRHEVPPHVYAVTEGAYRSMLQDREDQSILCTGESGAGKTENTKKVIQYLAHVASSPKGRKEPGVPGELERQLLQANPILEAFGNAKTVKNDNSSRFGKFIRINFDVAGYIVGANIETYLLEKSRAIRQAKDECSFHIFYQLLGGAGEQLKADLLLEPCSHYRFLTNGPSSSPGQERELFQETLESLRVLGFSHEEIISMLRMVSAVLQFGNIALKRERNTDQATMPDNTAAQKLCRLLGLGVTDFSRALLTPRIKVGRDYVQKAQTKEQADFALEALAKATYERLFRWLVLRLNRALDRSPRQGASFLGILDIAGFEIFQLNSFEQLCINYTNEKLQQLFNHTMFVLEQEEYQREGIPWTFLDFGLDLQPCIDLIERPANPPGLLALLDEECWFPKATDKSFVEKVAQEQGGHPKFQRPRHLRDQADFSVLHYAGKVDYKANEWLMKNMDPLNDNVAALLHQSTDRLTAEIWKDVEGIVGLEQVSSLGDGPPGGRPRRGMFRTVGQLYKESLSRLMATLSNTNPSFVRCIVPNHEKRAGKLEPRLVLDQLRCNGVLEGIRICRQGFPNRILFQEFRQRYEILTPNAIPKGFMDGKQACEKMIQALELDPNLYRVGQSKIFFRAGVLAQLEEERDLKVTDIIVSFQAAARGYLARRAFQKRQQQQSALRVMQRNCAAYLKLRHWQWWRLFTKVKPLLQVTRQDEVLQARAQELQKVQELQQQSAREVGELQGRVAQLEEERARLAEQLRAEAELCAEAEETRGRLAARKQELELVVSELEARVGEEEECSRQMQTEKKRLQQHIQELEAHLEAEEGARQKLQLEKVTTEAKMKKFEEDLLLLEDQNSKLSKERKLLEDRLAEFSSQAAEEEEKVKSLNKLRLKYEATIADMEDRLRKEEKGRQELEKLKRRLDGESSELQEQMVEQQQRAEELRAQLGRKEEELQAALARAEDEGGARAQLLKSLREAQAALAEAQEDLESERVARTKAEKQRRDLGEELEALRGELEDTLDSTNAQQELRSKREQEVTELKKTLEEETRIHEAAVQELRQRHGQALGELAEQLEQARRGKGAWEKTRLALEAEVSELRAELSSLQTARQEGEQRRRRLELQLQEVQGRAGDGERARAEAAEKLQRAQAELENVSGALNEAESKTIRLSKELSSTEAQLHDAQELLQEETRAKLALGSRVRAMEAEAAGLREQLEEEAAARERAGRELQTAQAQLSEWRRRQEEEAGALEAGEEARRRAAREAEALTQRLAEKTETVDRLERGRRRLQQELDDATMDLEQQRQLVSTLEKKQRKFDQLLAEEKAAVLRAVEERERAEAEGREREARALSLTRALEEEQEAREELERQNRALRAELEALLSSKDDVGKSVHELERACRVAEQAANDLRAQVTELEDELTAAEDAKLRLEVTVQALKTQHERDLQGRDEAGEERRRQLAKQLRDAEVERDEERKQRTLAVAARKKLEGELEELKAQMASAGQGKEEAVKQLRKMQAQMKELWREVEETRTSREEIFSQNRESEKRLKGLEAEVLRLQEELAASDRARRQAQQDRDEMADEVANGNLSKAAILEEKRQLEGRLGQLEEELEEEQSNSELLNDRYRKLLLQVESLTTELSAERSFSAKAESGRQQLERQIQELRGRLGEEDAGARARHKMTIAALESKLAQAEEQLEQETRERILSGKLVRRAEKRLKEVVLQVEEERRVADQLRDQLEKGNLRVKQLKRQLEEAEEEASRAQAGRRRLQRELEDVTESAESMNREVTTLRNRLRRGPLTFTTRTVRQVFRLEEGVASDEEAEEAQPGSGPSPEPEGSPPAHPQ
Chain of Cyclin-dependent kinase 6 (Q00534 whole entry): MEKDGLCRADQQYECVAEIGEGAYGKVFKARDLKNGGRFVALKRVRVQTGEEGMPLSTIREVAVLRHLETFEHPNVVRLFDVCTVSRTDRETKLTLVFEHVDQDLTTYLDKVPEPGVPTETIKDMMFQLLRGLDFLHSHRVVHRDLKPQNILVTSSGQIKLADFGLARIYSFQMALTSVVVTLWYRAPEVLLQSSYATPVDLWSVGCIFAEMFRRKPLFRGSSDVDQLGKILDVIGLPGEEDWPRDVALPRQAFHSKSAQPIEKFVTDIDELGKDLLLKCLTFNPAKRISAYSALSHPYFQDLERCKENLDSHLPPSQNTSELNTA
Chain of Ras-related protein Rab-6A (P20340 whole entry): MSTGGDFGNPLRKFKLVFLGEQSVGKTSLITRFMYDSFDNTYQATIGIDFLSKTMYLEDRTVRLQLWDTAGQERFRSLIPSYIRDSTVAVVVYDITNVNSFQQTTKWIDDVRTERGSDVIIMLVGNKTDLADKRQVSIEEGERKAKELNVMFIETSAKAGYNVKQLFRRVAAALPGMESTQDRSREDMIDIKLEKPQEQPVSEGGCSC
Chain of BMP-2-inducible protein kinase (Q9NSY1 whole entry): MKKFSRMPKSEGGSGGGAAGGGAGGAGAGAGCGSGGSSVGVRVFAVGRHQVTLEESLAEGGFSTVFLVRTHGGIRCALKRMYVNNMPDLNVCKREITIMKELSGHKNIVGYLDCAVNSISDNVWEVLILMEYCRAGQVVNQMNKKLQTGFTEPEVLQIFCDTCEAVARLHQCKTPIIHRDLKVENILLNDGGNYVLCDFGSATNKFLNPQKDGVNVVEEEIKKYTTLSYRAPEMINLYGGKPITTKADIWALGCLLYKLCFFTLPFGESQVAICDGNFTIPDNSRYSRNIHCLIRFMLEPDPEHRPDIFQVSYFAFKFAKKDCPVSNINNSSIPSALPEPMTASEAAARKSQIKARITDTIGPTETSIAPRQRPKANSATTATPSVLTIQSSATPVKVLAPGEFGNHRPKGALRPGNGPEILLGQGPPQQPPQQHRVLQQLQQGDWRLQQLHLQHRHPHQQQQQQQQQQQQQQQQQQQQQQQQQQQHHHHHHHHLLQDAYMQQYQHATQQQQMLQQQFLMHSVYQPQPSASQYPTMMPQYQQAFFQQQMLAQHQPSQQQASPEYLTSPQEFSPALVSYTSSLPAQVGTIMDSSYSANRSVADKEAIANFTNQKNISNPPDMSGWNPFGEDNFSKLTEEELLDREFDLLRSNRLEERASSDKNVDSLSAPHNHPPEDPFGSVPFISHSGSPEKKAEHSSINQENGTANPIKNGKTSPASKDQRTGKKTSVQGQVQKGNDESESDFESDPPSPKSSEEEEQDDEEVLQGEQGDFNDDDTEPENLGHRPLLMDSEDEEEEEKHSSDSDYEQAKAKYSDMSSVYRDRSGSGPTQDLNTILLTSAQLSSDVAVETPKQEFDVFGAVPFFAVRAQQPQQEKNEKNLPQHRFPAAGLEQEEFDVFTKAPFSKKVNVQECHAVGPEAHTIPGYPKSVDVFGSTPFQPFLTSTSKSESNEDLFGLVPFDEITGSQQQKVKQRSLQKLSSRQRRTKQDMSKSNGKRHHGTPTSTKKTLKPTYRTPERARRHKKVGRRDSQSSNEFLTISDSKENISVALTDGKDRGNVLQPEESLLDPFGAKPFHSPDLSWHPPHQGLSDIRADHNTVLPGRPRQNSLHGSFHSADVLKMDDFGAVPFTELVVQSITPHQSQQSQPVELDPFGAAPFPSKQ
Chain of Calcium/calmodulin-dependent protein kinase type II subunit delta (Q13557 whole entry, canonical isoform): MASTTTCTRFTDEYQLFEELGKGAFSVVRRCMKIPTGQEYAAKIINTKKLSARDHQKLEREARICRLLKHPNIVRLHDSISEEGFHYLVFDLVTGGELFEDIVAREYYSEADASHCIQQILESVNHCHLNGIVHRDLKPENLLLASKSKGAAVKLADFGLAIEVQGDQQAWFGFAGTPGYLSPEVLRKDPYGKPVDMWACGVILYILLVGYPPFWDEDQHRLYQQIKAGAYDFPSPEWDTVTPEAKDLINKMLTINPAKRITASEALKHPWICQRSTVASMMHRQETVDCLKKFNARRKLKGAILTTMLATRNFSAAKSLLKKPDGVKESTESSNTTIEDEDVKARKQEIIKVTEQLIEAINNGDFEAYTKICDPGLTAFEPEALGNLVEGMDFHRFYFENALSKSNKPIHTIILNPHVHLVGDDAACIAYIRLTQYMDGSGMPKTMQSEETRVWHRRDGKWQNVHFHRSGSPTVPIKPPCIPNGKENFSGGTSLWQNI

The term Kd denotes the concentration at which binding is half-saturated. With `Cc1nc(N)sc1-c1ccnc(Nc2ccc(N3CCOCC3)cc2)n1` [CYC-116], the Kd in assay [1] was > 30 µM (inactive); at Actin-related protein 2 it was > 30 µM (inactive); in [2], 0.007 µM (active); in assay [3] it was > 30 µM (inactive); in [4], 1.72 µM (active); at Myosin-14 it was > 30 µM (inactive). Further, the Kd in assay [5], in [6] and in assay [7] was > 30 µM (inactive) in each case.
Regarding `Cc1cc(Nc2cc(N3CCN(C)CC3)nc(/C=C/c3ccccc3)n2)n[nH]1` [ENMD-2076], the Kd is > 30 µM (inactive) in [1]; > 30 µM (inactive) on Actin-related protein 2; 1.49 µM (active) in [2]; > 30 µM (inactive) in assay [3]; > 30 µM (inactive) in [4]; > 30 µM (inactive) on Myosin-14. The Kd in assay [5], in assay [6], in [7] and in assay [8] was > 30 µM (inactive) in each case.
On to `Nc1nc(N)c2nc(-c3cccc(O)c3)c(-c3cccc(O)c3)nc2n1` [TG100-115], for which the Kd in assay [1], in [4], in assay [5], in assay [6] and in assay [7] was > 30 µM (inactive) each time.
On to `CN1CCN(c2ccc3nc(-c4c(N)c5c(F)cccc5[nH]c4=O)[nH]c3c2)CC1` [DOVITINIB], for which the Kd is > 30 µM (inactive) in [1]; > 30 µM (inactive) at Actin-related protein 2; 2.83 µM (active) in [4]; > 30 µM (inactive) at Myosin-14; > 30 µM (inactive) in assay [5]; > 30 µM (inactive) in assay [6]. In addition, the Kd in [7] was > 30 µM (inactive).
Turning to `COc1cc2nccc(Oc3ccc(NC(=O)Nc4cc(C)on4)c(Cl)c3)c2cc1OC` [TIVOZANIB], the Kd (in [1]; on Actin-related protein 2; in assay [2]; in assay [9]; in [3]; in assay [4]) was > 30 µM (inactive) each time. Also, the Kd (in assay [10]; at Myosin-14; in assay [5]; in assay [6]; in assay [7]) was > 30 µM (inactive) each time.
As for `CCn1c(-c2nonc2N)nc2c(C#CC(C)(C)O)ncc(OC[C@H]3CCCNC3)c21` [GSK-690693], the Kd was > 30 µM (inactive) in assay [1]; > 30 µM (inactive) at Actin-related protein 2; > 30 µM (inactive) in assay [4]; > 30 µM (inactive) on Myosin-14; 0.566 µM (active) in [5]; > 30 µM (inactive) in assay [6]. In assay [7], the Kd is > 30 µM (inactive).
On to `Cc1cn(-c2cc(NC(=O)c3ccc(C)c(Nc4nccc(-c5cccnc5)n4)c3)cc(C(F)(F)F)c2)cn1` [NILOTINIB], for which the Kd (in assay [1]; on Actin-related protein 2; in [4]; on Myosin-14; in assay [5]; in [6]) was > 30 µM (inactive) each time. For the same compound, the Kd in assay [7] was > 30 µM (inactive).
As for `CNC(=O)c1cc(Oc2ccc(NC(=O)Nc3ccc(Cl)c(C(F)(F)F)c3)c(F)c2)ccn1` [REGORAFENIB], the Kd (in assay [1]; at Actin-related protein 2; in assay [2]; in assay [9]; in [3]; in assay [4]) was > 30 µM (inactive) each time. The Kd (in assay [10]; on Myosin-14; in assay [5]; in assay [6]; in assay [7]) was > 30 µM (inactive) in each case.
